EPA's ToxValDB 9.5 (doi:10.2903/j.efsa.2008.176r)
≈ marks a conversion by molar mass, not a printed value.

Legend:
Oryctolagus sp. = details: developmental; development
Colinus virginianus = details: oral
Apis mellifera = details: acute; duration: 48 hours; oral; unspecified; mortality
Daphnia magna = details: chronic/long-term; duration: 21 days; reproduction
Hypoaspis aculeifer = details: chronic/long-term
Mus musculus = details: developmental; development
Canidae = details: chronic; duration: 1 years; oral; Dog Other; histopathology: nonneoplastic
Rattus norvegicus = details: oral; for LD50: acute, mortality
[1] = reproduction developmental, diet

| SMILES | NOEL (Oryctolagus sp.) [mg/kg-day] | LC50 (Colinus virginianus; acute, diet, mortality) [mg/kg-day] | LD50 (Colinus virginianus; acute, mortality) [mg/kg-day] | LOEL (Colinus virginianus; [1]) [mg/kg-day] | NOEL (Colinus virginianus; [1]) [mg/kg-day] | LD50 (Apis mellifera) [µg/piece] | NOEC (Daphnia magna) [mg/L] | NOEC (Hypoaspis aculeifer) [mg/kg] | LC50 (Oncorhynchus mykiss; acute, duration: 96 hours, mortality) [µg/mL] | NOEC (Oncorhynchus mykiss; chronic/long-term, duration: 83 days, growth) [mg/L] | LOAEL (Mus musculus) [mg/kg-day] | NOAEL (Canidae) [mg/kg-day] | LD50 (Rattus norvegicus) [mg/kg-day] | NOEL (Rattus norvegicus; reproduction developmental, diet, body weight) [mg/kg-day] | LC50 (Tagia sp.; acute, duration: 14 days, mortality) [mg/kg] | NOEC (Tagia sp.; chronic/long-term, duration: 8 weeks, reproduction) [mg/kg] |
| --- | --- | --- | --- | --- | --- | --- | --- | --- | --- | --- | --- | --- | --- | --- | --- | --- |
| CC(C)(C)C(O)(CCc1ccc(Cl)cc1)Cn1cncn1 (stereo not drawn) [Tebuconazole] | 10 | > 703 | 1990 | 12.4 | 5.8 | > 83 | 0.01 | 50 | 4.4 (≈ 14.3 µM) | 0.012 | 10 | 3 | 1700 | 10 | 1380 | 10 |
| NC(Cc1ncn[nH]1)C(=O)O (stereo not drawn) [1,2,4-Triazole-3-alanine] | – | > 1370 | – | – | – | – | – | – | – | – | – | – | > 5000 | – | – | – |
